Consider two molecules from patent publication US7429482B2, “Screening tools for discovery of novel anabolic agents” (United States of America as represented by the Department …, priority 2005, dated 2008).

One assay concerns IGFBP-3. Description: Chronic denervation: IGFBP-3 mRNA in gastrocnemius (qPCR). The assay is classed as in vivo, rat. As to the method:
Male Wistar rats weighing 200-250 gm (Taconic Farms, Germantown, N.Y.) were provided food and water ad libitum and were housed in a temperature and humidity controlled environment providing a 12:12 hour day-night cycle. For surgical procedures, animals were anesthetized with ketamine/xylazine. The left sciatic nerve was exposed by blunt dissection, and a 1 to 2 mm piece of this nerve was excised just below the level of the femoral head. A sham surgery was performed on the right hind limb in which the sciatic nerve was exposed but was not transected. Twenty eight days later, animals were anesthetized, and Alzet pumps were implanted subcutaneously on the back. […] Testosterone levels after replacement were approximately 15 nM, a high-normal range for rats of this age. […]
Total RNA was extracted from skeletal muscle (20 mg) by homogenization in guanidine thiocyanate using a Polytron followed by extraction of total RNA with phenol-chloroform as described by (Chomczynski and Sacchi, Anal Biochem 162: 156-159, 1987). […] Total RNA was eluted and quantified by absorbance at 260 nm. […] Levels of gene expression in the denervated muscle were expressed as fold induction relative to muscle from the sham-denervated leg of animals administered vehicle. […] Fold-induction was determined using the 2^−ΔΔCt method, using expression of 18S RNA as the normalization control. […]
Background: In qPCR the cycle at which signal appears reflects the starting amount.

The test system of another assay is myogenin. The experiment in a line: Acute denervation: myogenin mRNA in EDL and soleus (qPCR). The assay is classed as in vivo, rat. On the procedure: Male Wistar rats weighing 250 gm (Taconic Farms, Germantown, N.Y.) were provided food and water ad libitum and were housed in a temperature and humidity controlled environment providing a 12:12 hour day-night cycle. For surgical procedures, animals were anesthetized with ketamine/xylazine. The left sciatic nerve was exposed by blunt dissection, and a 1 to 2 mm piece of this nerve was excised just below the level of the femoral head. A sham surgery was performed on the right hind limb in which the sciatic nerve was exposed but was not transected. Model 2002 Alzet pumps were implanted subcutaneously on the back. […] A pellet containing 15 mg of testosterone (Innovative Research of America, Sarasota, Fla.) administered as a continuous infusion (5 mg/wk), or a pellet containing placebo, was inserted into a subcutaneous pouch. […] Because testosterone is known to have anabolic actions (Ferrando et al., Am J Physiol Endocrinol Metab 282: E601-E607, 2002; Mauras et al., J Clin Endocrinol Metab 83: 1886-1892, 1998; Urban et al., Am J Physiol 269: E820-E826, 1995), reductions in levels of this hormone could affect muscle mass and confound interpretation of the results. Animals were euthanized 14 days later by inhalation of carbon dioxide. Following removal of blood from the left ventricle for determination of serum testosterone concentration by radioimmunoassay (MP Biomedicals, Costa Mesa, Calif.), soleus, extensor digitorum longus (EDL), gastrocnemius and plantaris muscles were excised and weighed, then were flash frozen on dry ice and stored at −80° C.
Total RNA was extracted from skeletal muscle (20 mg) by homogenization in guanidine thiocyanate using a Polytron followed by extraction using phenol-chloroform (Chomczynski and Sacchi, Anal Biochem 162: 156-159, 1987). Total RNA was further enriched using RNAeasy minicolumns (Qiagen, Valencia, Calif.) and treated with RNAse-free DNAse (Qiagen). Total RNA was then eluted and quantified by absorbance at 260 nm. One μg of total RNA was used to prepare a cDNA library by reverse transcription (iScirpt, Biorad, Hercules, Calif.). Libraries were diluted 1:25 with water prior to real time PCR. Real time PCR was conducted using an ABI 7500 real time PCR thermal cycler, ABI 2×PCR reagent, and ABI Taqman real time PCR probes for genes of interest. Levels of gene expression in the denervated muscle were expressed as fold induction relative to muscle from the sham-denervated leg of animals administered vehicle. […] Fold-induction was determined using the 2^−ΔΔCt method, using expression of 18S RNA as the normalization control. Primers and probes used for 18S RNA, MuRF1 and myostatin were obtained through the assays by Design service of Applied Biosystems and had the sequences are shown in Table 2; probes were 5′ labeled with FAM and 3′ modified with a non-fluorescent quencher. All other primer-probe combinations used were those contained in ABI Assay on Demand kits.

Assay [1] relates to MAFbx. Description: Chronic denervation: MAFbx mRNA in gastrocnemius (qPCR). The assay is classed as in vivo, rat. On the procedure:
Male Wistar rats weighing 200-250 gm (Taconic Farms, Germantown, N.Y.) were provided food and water ad libitum and were housed in a temperature and humidity controlled environment providing a 12:12 hour day-night cycle. For surgical procedures, animals were anesthetized with ketamine/xylazine. The left sciatic nerve was exposed by blunt dissection, and a 1 to 2 mm piece of this nerve was excised just below the level of the femoral head. A sham surgery was performed on the right hind limb in which the sciatic nerve was exposed but was not transected. Twenty eight days later, animals were anesthetized, and Alzet pumps were implanted subcutaneously on the back. […] Testosterone levels after replacement were approximately 15 nM, a high-normal range for rats of this age. Animals were sacrificed 3, 7 or 28 days after implantation of the miniosmotic pumps by inhalation of carbon dioxide. Gastrocnemius muscles were excised and weighed, then flash frozen on dry ice and stored at −80° C.
Total RNA was extracted from skeletal muscle (20 mg) by homogenization in guanidine thiocyanate using a Polytron followed by extraction of total RNA with phenol-chloroform as described by (Chomczynski and Sacchi, Anal Biochem 162: 156-159, 1987). Total RNA was further enriched using RNAeasy minicolumns (Qiagen, Valencia, Calif.). This procedure included digestion of contaminating DNA on the column with RNAse-free DNAse (Qiagen). Total RNA was eluted and quantified by absorbance at 260 nm. One μg of total RNA was used to prepare a cDNA library by reverse transcription (High Capacity cDNA Archive Kit, Applied Biosystems). Libraries were diluted 25-fold with water. Real time PCR was performed Taqman 2×PCR buffer (Applied Biosystems) using an Applied Biosystems 7500 thermocycler. Levels of gene expression in the denervated muscle were expressed as fold induction relative to muscle from the sham-denervated leg of animals administered vehicle. […] Fold-induction was determined using the 2^−ΔΔCt method, using expression of 18S RNA as the normalization control. […]

In assay [2] the test system is MAFbx. The experiment in a line: MAFbx expression in gastrocnemius of rats infused with dexamethasone with or without testosterone (qPCR). The assay is classed as in vivo. Particulars: rat, dexamethasone plus testosterone 28 mg/kg/day, 7 days. On the procedure:
Muscle was flash frozen on dry ice after excision. Total RNA was isolated by phenol:chloroform extraction (Chomczynski and Sacchi, Anal Biochem 162: 156-159, 1987) and further enriched using RNAeasy minicolumns (Qiagen) with digestion on the column with RNAse-free DNAse (Qiagen).
RNA was quantified by absorbance at 260 nm. One microgram of total RNA was used to prepare cDNA libraries using the High Capacity cDNA Archive Kit (Applied Biosystems, Foster City, Calif.). Libraries were diluted 25-fold with water. Real time PCR was performed using Taqman 2×PCR buffer (Applied Biosystems) and an Applied Biosystems 7500 thermocycler. Data were normalized relative to that for 18S RNA. Relative changes in expression were determined using the 2^−ΔΔCt method. Taqman Assay on Demand probes (Applied Biosystems) were used for all assays except rat 18S RNA, which was quantified using the following […]: Forward: […] (SEQ ID NO:15); Reverse: […] (SEQ ID NO:16); Probe: FAM-[…] (SEQ ID NO:17; Labeled with FAM and non-fluoresent quencher, NFQ, at 5′ and 3′ ends, repsectively).
Male Wistar rats weighing 250 gm were anesthetized with ketamine/xylazine followed by implantation Alzet miniosmotic pumps administering vehicle (propylene glycocol), dexamethasone (0.7 mg/kg/day), or dexamethasone plus testosterone (28 mg/kg/day). […]

In the case of `C[C@]12CC[C@H]3[C@@H](CCC4=CC(=O)CC[C@@H]43)[C@@H]1CC[C@@H]2O` [nandrolone], the IGF-BP-3 expression entry in the assay with IGFBP-3 (denervated muscle, 56-days) is listed as “significantly reduced”. The IGFBP-3 expression entry with IGFBP-3 (sham-denervated muscle) is “did not appreciably alter”. Further, the myogenin expression entry in the assay on myogenin (denervated EDL, not significant) is reported as “tended to reduce”. Moreover, the “myogenin expression as % of that in denervated muscle from placebo animals” value in the assay with myogenin (denervated soleus) amounted to 70%. Moreover, the “reduction of myogenin expression” value came out at 50% in the assay on myogenin (sham-denervated EDL, not significant); 27% with myogenin (sham-denervated EDL, trend, not significant); 50% in the assay with myogenin (sham-denervated soleus, did not reach significance); 48% with myogenin (sham-denervated soleus, trend, not significant). Moreover, the MAFbx expression result with MAFbx [1] (denervated muscle, 7-days infusion (35 days after denervation)) was “tended to be reduced”; in the assay on MAFbx [1] (sham-denervated muscle), “did not alter”. For the same molecule, the “reduction of MAFbx expression” value with MAFbx [1] (denervated muscle, 28 days administration) is reported as 35%.
For `C[C@]12CC[C@H]3[C@@H](CCC4=CC(=O)CC[C@@]43C)[C@@H]1CC[C@@H]2O` [testosterone], the “effects of dexamethasone on MAFbx expression in gastrocnemius” value with MAFbx [2] is “completely blocked”.
